Values quoted from earlier work as cited in patent publication US20220409609A1, “INJECTABLE FORMULATION OF HYDROXYCHLOROQUINE” (Luckwel Pharmaceuticals Inc., priority 2021, published 2022).
Counter-ions that a name gives are not always drawn.

What was measured:
[1] = water at 25° C.

## CCN(CCO)CCCC(C)Nc1ccnc2cc(Cl)ccc12 (racemic) [Hydroxychloroquine sulfate, 2-[[4-[(7-Chloro-4-quinolyl)amino]pentyl]ethylamino] ethanol sulfate (1:1)]
other
  time at which hydroxychloroquine concentrations peak after dosing: 3 to 4 h
[1]
  solubility in water: freely soluble
